Results from US10597366B2, “Aryl ethers and uses thereof” (Peloton Therapeutics, Inc., priority 2013, dated 2020).

Experiments:
[1] = tested on: renal cell carcinoma 786-O xenograft; test: In vivo efficacy study, 786-O xenograft; design: species or system SCID/Biege mice; conditions: all treatment groups; t-Test; Compound 15 20 days, Compound 163 28 days
[2] = tested on: EPO and PGK1 mRNA in mouse kidney; test: In vivo PK/PD study: mouse kidney mRNA levels by qRT-PCR; design: species or system SCID/Biege mice; conditions: oral gavage three times at 12 hour intervals; 10, 30 or 100 mg/kg
Procedure: About 5×10^6 renal cell carcinoma 786-O tumor cells (ATCC® CRL-1932, VHL and HIF-1α null cell line) in PBS and Matrigel (1:1 in volume) were injected subcutaneously at the right flanks of SCID/Biege mice at 6-7 weeks of age for xenograft development. When the xenografts reached about 450 mm^3 in size, the tumor bearing mice were randomly divided into 4 groups (n=4). Plasma was collected prior to treatment by retro-orbital bleeding. […] All animals were sacrificed at 12 hours post last dose. Tumor, kidney, and plasma were collected from each animal. Total RNA was extracted from the tumors and kidneys. The mRNA levels of HIF-1α, HIF-2α and their respective target genes were determined by qRT-PCR (FIG. 1).

human VEGFA = test: Plasma human VEGFA level of 786-O xenograft bearing mice; format: in vivo; conditions: 10, 30 and 100 mg/kg, three times at 12 hour intervals, prior to vs 12 h post treatment, FIG. 5
[3] = tested on: 786-O-Hif-Luc cells (luciferase gene driven by multiple HIF responsive elements); test: Luciferase Assay; format: cell-based; conditions: 24 h, 786-O-Hif-Luc cells, about 24 hours; read-out: Mean Luciferease EC50
Procedure: A pool of infected cells were then selected against 2 μg/mL of puromycin (P8833, Sigma) for 10 days followed by limited dilution to select single clones.
Each concentration was tested in triplicate. After about 24 hours, luciferase activity was determined using ONE-Glo Luciferase Assay Reagent (E6110, Promega) following the manufacturer's recommended procedure. EC50 were calculated by using Dotmatics software.

For N#Cc1cc(F)cc(Oc2ccc(S(=O)(=O)C(F)F)c3c2CC(F)(F)[C@H]3O)c1 [Compound 15, 3-[(1S)-7-(difluoromethylsulfonyl)-2,2-difluoro-1-hydroxy-indan-4-yl]oxy-5-fluoro-benzonitrile], the “Tumor size versus vehicle” value [1] was “statistically significant reduction”, the “Mouse kidney EPO mRNA level (HIF-2α specifically regulated gene)” value [2] was “reduced” and the “Mouse kidney PGK1 mRNA level (HIF-1α targeted gene)” value [2] was “remained unchanged”. For the same compound, the “plasma level of human VEGFA” value (human VEGFA) was “reduced” and the EC50 [3] was 7 nM.
